Experimental data from patent US20040110228A1, “Combinatorial organic synthesis of unique biologically active compounds” (priority 2002, published 2004).
Where a SMILES comes first, the peptide text is derived from it. Where no end group is shown, it is not given here. [ ]: non-standard residue; d: D form. ξ: configuration not given here. ξW = NC(Cc1c[nH]c2ccccc12)C(=O)O; dTic = O=C(O)[C@H]1Cc2ccccc2CN1; Tic = O=C(O)[CH]1Cc2ccccc2CN1; ξF = NC(Cc1ccccc1)C(=O)O

Columns and labels:
[1] = test system: Holliday junction (HJ) intermediate; assay: in vitro Holliday junction trapping assay (recombination of radiolabeled and unlabeled DNA substrates); format: biochemical; conditions: 0.01 mg/ml concentrations of peptides; FIG. 56
Method: The eight macrocyclic compounds shown in FIGS. 55 were tested for their ability to bind to the HJ in an in vitro assay. The assay employs a recombination reaction between one radiolabeled double-stranded DNA substrate and an unlabeled partner DNA substrate. Successful recombination gives recombination products and very small amounts of HJ intermediate. A previously identified linear peptide dimer of […] was used as a positive control because it was known to accumulate HJs, as described in […] et al., 2000, supra). During the recombination reaction, two initial DNA cleavage and ligation reactions must take place to form the junction, and two subsequent DNA cleavage and ligation reactions resolve the HJs into double stranded recombination products.

[2] = test system: bacterial strains, both gram positive and gram negative; assay: growth inhibition assays in microtiter plates (cell density at 600 nm); format: cell-based; conditions: 101 μg/ml and 100 μg/ml; FIG. 57
Method: The eight macrocyclic compounds shown in FIGS. 55 were tested for their ability to bind to the HJ and inhibit bacterial growth in an in vivo assay. Growth inhibition assays were performed in microtiter plates, by comparing the growth of bacteria in the presence and absence of compounds. Cell density at 600 nm was determined for a series of bacterial strains, both gram positive and gram negative, in the presence and absence of macrocyclic compounds. […] Measurements were taken using a BioRad microtiter plate reader. […] The diluted cultures were shaken at 37° C. and optical densities were measured at 30-minute intervals in order to follow their growth. […]
In order to test the inhibitory potency of the peptides, cell growth assays were performed. […] The cell growth assays were performed in microtiter plates; measurements are taken using a BioRad microtiter plate reader.
Overnight bacterial cultures were diluted 1:20 into media and each test compound was added in no more than 10% of the volume of the final suspension. […] The diluted cultures were shaken at 37° C. and optical densities were measured at 30 minute intervals to follow their growth. […]
Four linear heptamers prepared according to FIGS. 63 were tested for their bacteria growth inhibition. […] Measurements were taken using a BioRad microtiter plate reader. […]

[3] = molecular target: T1, Int protein (Escherichia phage lambda, UniProt P03700); conditions: Cassell et al. 2000; cited from earlier work
T1 sequence (P0A6Y1 whole entry): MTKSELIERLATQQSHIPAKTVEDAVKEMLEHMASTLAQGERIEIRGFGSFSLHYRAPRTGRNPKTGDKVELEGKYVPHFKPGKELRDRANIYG
T1 sequence (P03699 whole entry, further chain): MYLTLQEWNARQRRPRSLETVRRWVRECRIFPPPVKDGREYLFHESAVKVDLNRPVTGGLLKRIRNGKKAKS
T1 sequence (P0A6X7 whole entry, further chain): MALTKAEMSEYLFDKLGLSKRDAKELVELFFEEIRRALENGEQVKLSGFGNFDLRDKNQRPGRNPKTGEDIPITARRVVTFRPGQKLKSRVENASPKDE
T1 sequence (P03700 whole entry): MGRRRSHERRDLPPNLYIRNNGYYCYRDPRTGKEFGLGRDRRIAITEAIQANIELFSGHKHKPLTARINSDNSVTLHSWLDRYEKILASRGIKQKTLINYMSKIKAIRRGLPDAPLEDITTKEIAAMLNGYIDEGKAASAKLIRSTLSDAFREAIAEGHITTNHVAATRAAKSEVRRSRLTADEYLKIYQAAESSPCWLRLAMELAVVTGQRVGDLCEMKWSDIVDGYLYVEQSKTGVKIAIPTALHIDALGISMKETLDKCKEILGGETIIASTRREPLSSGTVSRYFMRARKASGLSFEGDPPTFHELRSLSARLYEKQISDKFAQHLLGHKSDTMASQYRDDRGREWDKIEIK

[4] = test system: Salmonella typhimurium; assay: cell growth assay (OD600); format: cell-based; conditions: Salmonella enterica serovar Typhimurium Ames strain and LT2 strain; peptides in the medium
[5] = molecular target: T1, Int protein; assay: in vitro recombination reaction catalysed by the Int protein (attL/attR substrates, gel); format: biochemical
[6] = test system: Bare Lymphocyte Syndrome (BLS) cell line; format: cell-based
Method: Toxicity of peptides KWWCRW and WKHYNY was determined by testing the inhibition of a eukaryotic cell line using a vital stain. The peptides were determined to not be cytotoxic in a non-adherent eukaryotic cell line, Bare Lymphocyte Syndrome (BLS), at concentrations below 250 mg/ml. (Allicotti et al, Manuscript in Preparation). The MTT cytotoxicity assay was used to measure cytotoxicity of the class B synergimycin compounds (Mosmann, Immunol. Methods 65:55-63 (1983)). In this assay, 3-(4,5-dimethylthiazol-2-yl)-2,5-diphenyl tetrazolium bromide (MTT) is converted by live cells into the purple compound formazan. The amount of formazan produced is measured at OD570. The absorbance of the sample wells is compared to the absorbance of the control wells. The readings are used to calculate an IC50 for each peptide. This value represents the concentration of each peptide that reduces the growth of the BLS cells to 50% of the maximum growth measured in the controls.

Molecule: O=C1NC(Cc2c[nH]c3ccccc23)C(=O)N2Cc3ccccc3CC2C(=O)NC(Cc2ccccc2)C(=O)NC(Cc2c[nH]c3ccccc23)C(=O)N2Cc3ccccc3CC2C(=O)NC1Cc1ccccc1 (stereo not shown) [B] (cyclo(FW[Tic]FW[Tic]); configuration not given here)
- accumulation of HJ intermediates / binding to the HJ [1]: particularly active

Molecule: O=C1CNC(=O)C(Cc2c[nH]c3ccccc23)NC(=O)C(Cc2ccccc2)NC(=O)CNC(=O)C(Cc2c[nH]c3ccccc23)NC(=O)C(Cc2ccccc2)N1 (stereo not shown) [H] (cyclo(GFWGFW); configuration not given here)
- bacterial growth inhibition by macrocyclic compounds [2]: greatest level of activity

Molecule: TrpLys(His or Ala)TyrAsnTyr [WK(HorA)YNY]
- potency among Holliday junction-stabilizing peptide families [3]: the most potent

Molecule: O=C1NC(Cc2c[nH]c3ccccc23)C(=O)N2Cc3ccccc3C[C@@H]2C(=O)NC(Cc2ccccc2)C(=O)NC(Cc2c[nH]c3ccccc23)C(=O)N2Cc3ccccc3C[C@@H]2C(=O)NC1Cc1ccccc1 (stereo partly shown) [E] (cyclo([dTic][ξF][ξW][dTic][ξF][ξW]))
- accumulation of HJ intermediates / binding to the HJ [1]: particularly active

Molecule: WRWYCR [WRWYCR, TrpArgTrpTyrCysArg]
- inhibition of bacterial cell growth, FIG. 12 [4]: inhibition of bacterial cell growth
- potency among peptides of a screen for site-specific recombination inhibitors [5]: the most potent

Molecule: WKHYNY [WKHYNY]
- concentrations at which not cytotoxic [6]: below 250 mg/ml

Molecule: O=C1NC(Cc2ccccc2)C(=O)N2Cc3ccccc3CC2C(=O)NC(Cc2ccccc2)C(=O)NC(Cc2ccccc2)C(=O)N2Cc3ccccc3CC2C(=O)NC1Cc1ccccc1 (stereo not shown) [A] (cyclo(FF[Tic]FF[Tic]); configuration not given here)
- accumulation of HJ intermediates / binding to the HJ [1]: particularly active

Molecule: KWWCRW [KWWCRW, LysTrpTrpCysArgTrp]
- concentrations at which not cytotoxic [6]: below 250 mg/ml

Molecule: O=C1NC(Cc2ccccc2)C(=O)N2Cc3ccccc3C[C@@H]2C(=O)NC(Cc2ccccc2)C(=O)NC(Cc2ccccc2)C(=O)N2Cc3ccccc3C[C@@H]2C(=O)NC1Cc1ccccc1 (stereo partly shown) [D] (cyclo([dTic][ξF][ξF][dTic][ξF][ξF]))
- accumulation of HJ intermediates / binding to the HJ [1]: particularly active
